Source: US10292991B2, “Small molecule therapeutic compounds that reduce the incidence of intracerebral hemorrhage and brain microhemorrhages” (St. Michaels Hospital, priority 2016, dated 2019)

Assays:
CCM3 (Ccm3) mRNA = test: qRT-PCR of CCM3 mRNA in atorvastatin-treated zebrafish larvae; format: in vivo, zebrafish (Danio rerio); conditions: 1 μmol/L atorvastatin plus 500 nmol/L drug, n=3
Procedure: (§1) qRT-PCR was used to assess relative expression of selected genes (an average of two biological trial and three technical replicates and each trial is a pool of 60 larvae/treatment), using β-actin as the housekeeping gene control. 3 dpf, Tg(Flk:GFP; Gata:dsRed) zebrafish larvae were used for RNA extraction and cDNA synthesis. Atorvastatin and drug treatment were performed as previously mentioned in drug screening. Total RNA was extracted from these larvae (a pool of 50-60 larvae/treatment) using the RNeasy extraction kit (Qiagen, Mississauga, ON, CAN) and treated with DNase. The concentration of total RNA was determined spectrophotometrically at 260/280 nm using a NanoDrop™ spectrophotometer. First-strand cDNA was synthesized from 1 μg of total RNA using random hexamer primers.
(§2) In each case, forward primer is shown on the top and reverse primer on the bottom.
(§3) PCR was carried out in a 20 μl total volume and included 1×PCR buffer, 1.25 mM MgCl2, 0.25 mM dNTP, 1 U Taq polymerase, 0.5 μmol/L forward, and reverse primers and 1 μl cDNA.

zebrafish larvae = test: Toxicity assay in zebrafish larvae (heart beat, blood flow, cardiac edema); format: in vivo, zebrafish (Danio rerio)
Procedure: The embryos were collected and distributed into a 96-well plate in 0.5% DMSO, similar to efficacy assays. […] Heart beat and blood flow were ranked from 3 (normal heart beat or blood flow) to 0 (no heart beat or blood flow). Cardiac edema was ranked from 0 (normal heart without edema) to −3 (severe cardiac edema). […] The ratio of TC50/EC50 was calculated in each case.
Heart beat and blood flow were ranked from 3 (normal heart beat or blood flow) to 0 (no heart beat or blood flow). Cardiac edema was ranked from 0 (normal heart without edema) to −3 (severe cardiac edema). […] Data is expressed as mean±SEM from 3 experiments.

[1] = test system: Cdh5 - exon2 morpholino-induced hemorrhage in zebrafish; test: Cdh5 (VE-cadherin) morpholino-induced hemorrhage in zebrafish, rescue by drugs; format: in vivo, zebrafish (Danio rerio); conditions: result in words, no EC50
Procedure: (§4) Danieau buffer (58 mM NaCl, 0.7 mM KCl, 0.4 mM MgSO4, 0.6 mM Ca(NO3)2, 5.0 mM HEPES, pH 7.6) was used to dilute the MO solutions to 0.2 mM final concentration. Individual wells were placed on a 1.0% agarose plate, in which the embryos were positioned. Afterwards, the MO solution was injected through the cell yolk into embryos of 1 to 4 cell-stage. The injected quantities varied from 0.5 to 15 ng.
Panels A & B: Stable EC junctions are maintained by a Cdc42-dependent and VE-cadherin-mediated cell-cell adhesion. VE cadherins are found on the surfaces of EC cell-cell junctions. VE-cadherins are associated with β- and α-catenins at their cytoplasmic domains, which connect them to the actin-based cytoskeleton (blue circles). Cdc42 belongs to the Rho-family of small guanosine triphosphatases (GTPases), which are the main regulators of VE-cadherin-based cell-cell adhesion. The functions of hmgcrb, βPix, and pak2a in regulating junctional stability in zebrafish are shown. HNGCR mediated GGPP biosynthesis regulates Cdc42 prenylation. βPix is a GEF that increases CDC42 affinity for GTP. Pak2 is an effector of Cdc42, which regulates actin filament organization.
Suppression of VE-cadherin induces hemorrhage.

[2] = test system: Hmgcrb - splice morpholino-induced hemorrhage in zebrafish; test: Hmgcrb morpholino-induced hemorrhage in zebrafish, rescue by drugs; format: in vivo, zebrafish (Danio rerio); conditions: Danio rerio; Table 6
Procedure: as §4
The first three morpholino pairs were good for the efficacy study. Efficacy assays were performed using Artemether (ARM, Sigma) and artemesunate (ART, GMP). […] Treating these morphants with the drugs rescued the ICH phenotype.

VE-Cadherin (Cdh5) mRNA = test: qRT-PCR of VE-cadherin mRNA in atorvastatin-treated zebrafish larvae; format: in vivo, zebrafish (Danio rerio); conditions: 1 μmol/L atorvastatin plus 500 nmol/L drug, n=3
Procedure: as §1, §2, §3

Integrin β3 (Itgb3) mRNA = test: qRT-PCR of integrin β3 mRNA in atorvastatin-treated zebrafish larvae; format: in vivo, zebrafish (Danio rerio); conditions: 1 μmol/L atorvastatin plus 500 nmol/L drug, n=3
Procedure: as §1, §2, §3

[3] = test system: zebrafish embryos treated with LPS; test: LPS-induced ICH/BMH and mortality in zebrafish embryos; format: in vivo; conditions: 1 μmol/L in fish water; LPS 200 mg/mL; preliminary data
Procedure: Experiment 1: LPS-induced ICH/BMH in zebrafish embryos. The lead compounds will be tested in a LPS model of ICH/BMH to determine if rescue of the ICH/BMH phenotype is a general property of these compounds or it is specific to statin-induced ICH/BMH. […] LPS concentration used was 200 mg/mL. […] Experiments are ongoing to define the rescuing effects of artemether on LPS-induced brain hemorrhage. Double transgenic zebrafish (Gata1:DsRed/Flk1:GFP) with green fluorescent vessel and red fluorescent red blood cells are used. Arrow points to hemorrhage.

[4] = drug from Sequoia Research (UK)
[5] = drug from Sigma, 3 dpf larvae, drug added 24 hpf

SMILES: CO[C@H]1O[C@@H]2O[C@@]3(C)CC[C@H]4[C@H](C)CC[C@@H]([C@H]1C)[C@@]24OO3 [Artemether]
- CCM3 transcription level (qRT-PCR) (CCM3 (Ccm3) mRNA): returned to normal
- TC50 (Blood flow) (zebrafish larvae; [4]): 746.3 nM
- TC50/EC50 ratio (Blood flow) (zebrafish larvae; [4]): (9.2)
- TC50/EC50 ratio (Edema) (zebrafish larvae; [4]): (6.5e+010)
- TC50/EC50 ratio (Heart beat) (zebrafish larvae; [4]): (1.3e+011)
- TC50/EC50 ratio (Blood flow) (zebrafish larvae; drug from Sigma): (39.5)
- TC50/EC50 ratio (Edema) (zebrafish larvae; drug from Sigma): (87.1)
- TC50/EC50 ratio (Heart beat) (zebrafish larvae; drug from Sigma): (94.3)
- TC50 (Blood flow) (zebrafish larvae; [5]): 975.3 nM
- TC50 (Edema) (zebrafish larvae; [5]): 19564 nM
- TC50 (Heart beat) (zebrafish larvae; [5]): 2328 nM
- Safety in zebrafish embryos (EC50 compared with TC50) (zebrafish larvae; result in words): EC50 is much lower than TC50
- Rescue of hemorrhage induced by Cdh5 - exon2 morpholino ([1]; listed as ARM): rescue was observed
- Rescue of hemorrhage induced by Cdh5 - exon2 morpholino ([1]; listed as ARM (Sigma)): Rescue effect
- EC50 [2]: 62.5 ± 8.3 nM
- VE-cadherin transcription level (qRT-PCR) (VE-Cadherin (Cdh5) mRNA): upregulation
- Integrin β3 transcription level (qRT-PCR) (Integrin β3 (Itgb3) mRNA): upregulation
- Effect on fish survival (LPS-induced mortality) [3]: protective effect
